Reference: patent publication US9726663B2, “Method of identifying or evaluating synergistic combinations of actives and compositions containing the same” (The Procter & Gamble Company, priority 2012, dated 2017)

Assays:
[1] = system: human, dermal fibroblasts (BJ cell line); experiment: Extracellular acidification rate (glycolysis) of fibroblasts, XF Extracellular Flux Analyzer; format: cell-based
Method: (§1) With regard to the fibroblasts discussed above in FIGS. 5A, 5B, SC, 5D, 5E, 6, 7A, 7B, 7C, 7D, 7E and 8 frozen, human dermal fibroblasts were obtained from the BJ cell line commercially available from ATCC, Bethesda, Md. The fibroblasts were grown to 70-80% confluence in a fibroblast culture medium of Eagle's Minimum Essential Medium (“EMEM”) supplemented with 10% fetal bovine serum (“FBS”) and gentamicin/amphotericin B ×500 solution (EMEM and FBS are available from ATCC and gentamicin/amphotericin B ×500 solution is available from Invitrogen). […] Each well included 100 μL of the fibroblast medium described above. A test medium was made from Dulbecco's Modified Eagle Medium (available from Seahorse Bioscience), 25 mM Glucose and 1 mM pyruvate. The test medium was warmed to 37° C. and the pH adjusted to 7.4. The cells were grown and plated at 37° C. and 5% CO2 air. The fibroblast medium in the wells was replaced by the test medium 1 hour prior to taking measurements. Oxygen consumption rate and extracellular acidification rate may be detected using an XF Extracellular Flux Analyzer or equivalent. The device should be capable of non-lethally and simultaneously detecting metabolic indicators of the oxphos and glycolysis pathways in a controlled environment, as well as providing […]. The cells may be provided in a multi-well plate suitable for use with the instrument (e.g., 24-well or 96 well plate) and washed prior to testing. The cells may be washed by any suitable means known in the art (e.g., using a Seahorse Biosciences XF prep station). It may be desirable to use a suitable prep station such as an XF prep station available from Seahorse Biosciences). When washing the cells, it may be desirable to remove the medium from the wells and wash the cells three times with a suitable amount of test medium (e.g., 180 μL in a 96-well plate or 600 μL in a 24-well plate). After washing the cells, a suitable amount (e.g., 180 μL) of an appropriate test medium is placed in each well, and the cells are equilibrated at 37° C. in a CO2-free incubator for 1-1.5 hours prior to taking placing the plate in the instrument for testing. Following the equilibration period, load the plate containing the cells into the instrument and equilibrate according to manufacturer's instructions. The entire test is conducted at 37° C. In some embodiments, the instrument may be to provide a three minute mix cycle, a two minute wait cycle, and a 3 minute measurement cycle for keratinocytes and a two minute mix cycle, two minute wait cycle, and 3 minute measurement cycle for fibroblasts. The cycles should be repeated for at least 88 minutes. It is to be appreciated that the cycles and times may be modified according to cell type and experiment design, as desired. The following example illustrates how the method herein can be used to identify synergistic combinations of skin care actives. Hydrogen peroxide is a well known ROS, and is used in this example to illustrate the undesirable metabolic effects associated with exposure of a cell to an oxidative stressor. The hydrogen peroxide was prepared at 10X working concentration in the fibroblast test medium described above. The test agents are niacinamide (also known as vitamin B3) and tocoquinone both commercially available from Sigma. The test agents were each prepared at 10× the final working concentration in the fibroblast test medium described above to provide a test agent solution. The stressor solution and the test agent solutions were both warmed to 37° C. and pH adjusted to 7.4. The cells are frozen, human, dermal fibroblasts obtained from ATCC (BJ cell line). The cells were cultured and prepared according to the test method described above. The fibroblasts were plated in Gelatin-coated, 96-well plate. Each well contained approximately 4×10^4 cells and 180 μL of fibroblast test medium (i.e., Seahorse Biosciences DMEM, 25 mM glucose and 1 mM pyruvate) at 37° C. and pH 7.4. […]

[2] = system: human, dermal fibroblasts (BJ cell line); experiment: Oxygen consumption rate (oxidative phosphorylation) of fibroblasts, XF Extracellular Flux Analyzer; format: cell-based; design: Average OCR value per treatment group: unit not given here; conditions: for effect on reduction in OCR caused by hydrogen peroxide: in combination with 1.5 mM H2O2
Method: as §1

[3] = rate number 1, before addition of stressor/test agents (basal)
[4] = rate number 2, before addition of stressor/test agents (basal)
[5] = rate number 3, before addition of stressor/test agents (basal, reference)
[6] = rate number 4, 1.5 mM hydrogen peroxide, 0.25 mM niacinamide, 0.025 mM tocoquinone
[7] = rate number 5, 1.5 mM hydrogen peroxide, 0.25 mM niacinamide, 0.025 mM tocoquinone
[8] = rate number 6, 1.5 mM hydrogen peroxide, 0.25 mM niacinamide, 0.025 mM tocoquinone
[9] = rate number 7, 1.5 mM hydrogen peroxide, 0.25 mM niacinamide, 0.025 mM tocoquinone
[10] = rate number 8, 1.5 mM hydrogen peroxide, 0.25 mM niacinamide, 0.025 mM tocoquinone
[11] = rate number 9, 1.5 mM hydrogen peroxide, 0.25 mM niacinamide, 0.025 mM tocoquinone
[12] = rate number 10, 1.5 mM hydrogen peroxide, 0.25 mM niacinamide, 0.025 mM tocoquinone
[13] = rate number 11, 1.5 mM hydrogen peroxide, 0.25 mM niacinamide, 0.025 mM tocoquinone
[14] = rate number 12, 1.5 mM hydrogen peroxide, 0.25 mM niacinamide, 0.025 mM tocoquinone
[15] = rate number 13, 1.5 mM hydrogen peroxide, 0.25 mM niacinamide, 0.025 mM tocoquinone
[16] = rate number 14, 1.5 mM hydrogen peroxide, 0.25 mM niacinamide, 0.025 mM tocoquinone
[17] = rate number 15, 1.5 mM hydrogen peroxide, 0.25 mM niacinamide, 0.025 mM tocoquinone
[18] = rate number 16, 1.5 mM hydrogen peroxide, 0.25 mM niacinamide, 0.025 mM tocoquinone
[19] = rate number 17, 1.5 mM hydrogen peroxide, 0.25 mM niacinamide, 0.025 mM tocoquinone
[20] = rate number 18, 1.5 mM hydrogen peroxide, 0.25 mM niacinamide, 0.025 mM tocoquinone
[21] = 0.25 mM niacinamide, 0.025 mM tocoquinone

Row | Structure (SMILES) | Average ECAR value per treatment group [1, 3] | Average ECAR value per treatment group [1, 4] | Average ECAR value per treatment group [1, 5] | Average ECAR value per treatment group [1, 6] | Average ECAR value per treatment group [1, 7] | Average ECAR value per treatment group [1, 8] | Average ECAR value per treatment group [1, 9] | Average ECAR value per treatment group [1, 10] | Average ECAR value per treatment group [1, 11] | Average ECAR value per treatment group [1, 12] | Average ECAR value per treatment group [1, 13] | Average ECAR value per treatment group [1, 14] | Average ECAR value per treatment group [1, 15] | Average ECAR value per treatment group [1, 16] | Average ECAR value per treatment group [1, 17] | Average ECAR value per treatment group [1, 18] | Average ECAR value per treatment group [1, 19] | Average ECAR value per treatment group [1, 20] | Average OCR value per treatment group [2, 3] | Average OCR value per treatment group [2, 4] | also measured
1 | OO [hydrogen peroxide, reference compound] | 101.82 percentage of rate 3 | 100.66 percentage of rate 3 | 100 percentage of rate 3 | 48.46 percentage of rate 3 | 29.55 percentage of rate 3 | 33.64 percentage of rate 3 | 37.41 percentage of rate 3 | 28.20 percentage of rate 3 | 17.74 percentage of rate 3 | 15.41 percentage of rate 3 | 14.87 percentage of rate 3 | 13.82 percentage of rate 3 | 13.32 percentage of rate 3 | 12.78 percentage of rate 3 | 11.82 percentage of rate 3 | 11.52 percentage of rate 3 | 11.36 percentage of rate 3 | 11.57 percentage of rate 3 | 97.05 | 99.80 | effect on extracellular acidification rate (glycolysis metabolism) ([1]; 1.5 mM hydrogen peroxide by itself): substantial decrease in extracellular acidification rate; effect on OCR (oxphos metabolism) ([2]; 1.5 mM H2O2 by itself): relatively sharp decrease in OCR followed by a less rapid increase; Average OCR value per treatment group [2, 5]: 100; Average OCR value per treatment group [2, 6]: −139.75; Average OCR value per treatment group [2, 7]: −4.58; Average OCR value per treatment group [2, 8]: −6.07; Average OCR value per treatment group [2, 9]: −24.10; Average OCR value per treatment group [2, 10]: −34.10; Average OCR value per treatment group [2, 11]: −44.54; Average OCR value per treatment group [2, 12]: −53.81; Average OCR value per treatment group [2, 13]: −58.25; Average OCR value per treatment group [2, 14]: −63.85; Average OCR value per treatment group [2, 15]: −70.69; Average OCR value per treatment group [2, 16]: −73.38; Average OCR value per treatment group [2, 17]: −76.46; Average OCR value per treatment group [2, 18]: −76.97; Average OCR value per treatment group [2, 19]: −76.26; Average OCR value per treatment group [2, 20]: −76.76
2 | NC(=O)c1cccnc1 [niacinamide] | 107.35 percentage of rate 3 | 99.41 percentage of rate 3 | 100 percentage of rate 3 | 64.35 percentage of rate 3 | 33.18 percentage of rate 3 | 34.48 percentage of rate 3 | 42.19 percentage of rate 3 | 49.60 percentage of rate 3 | 55.87 percentage of rate 3 | 60.52 percentage of rate 3 | 62.89 percentage of rate 3 | 60.57 percentage of rate 3 | 57.46 percentage of rate 3 | 55.04 percentage of rate 3 | 52.85 percentage of rate 3 | 51.52 percentage of rate 3 | 49.85 percentage of rate 3 | 47.58 percentage of rate 3 | 99.16 | 101.76 | effect on acidification rate (glycolysis metabolism) ([1]; 0.25 mM niacinamide added by itself, no hydrogen peroxide): does not significantly affect glycolysis metabolism; effect on glycolysis metabolism in combination with hydrogen peroxide ([1]; added in combination with 1.5 mM hydrogen peroxide): appears to lessen the detrimental effect of the hydrogen peroxide on glycolysis metabolism; effect on reduction in OCR caused by hydrogen peroxide [2, 21]: appears to lessen the reduction in OCR caused by the hydrogen peroxide; Average OCR value per treatment group [2, 5]: 100; Average OCR value per treatment group [2, 6]: −21.15; Average OCR value per treatment group [2, 7]: 63.31; Average OCR value per treatment group [2, 8]: 60.15; Average OCR value per treatment group [2, 9]: 47.41; Average OCR value per treatment group [2, 10]: 38.52; Average OCR value per treatment group [2, 11]: 34.85; Average OCR value per treatment group [2, 12]: 32.39; Average OCR value per treatment group [2, 13]: 31.10; Average OCR value per treatment group [2, 14]: 32.43; Average OCR value per treatment group [2, 15]: 30.49; Average OCR value per treatment group [2, 16]: 29.48; Average OCR value per treatment group [2, 17]: 28.18; Average OCR value per treatment group [2, 18]: 26.95; Average OCR value per treatment group [2, 19]: 25.83; Average OCR value per treatment group [2, 20]: 23.41
3 | CC1=C(C)C(=O)C(CCC(C)(O)CCCC(C)CCCC(C)CCCC(C)C)=C(C)C1=O (stereo not drawn) [tocoquinone] | 107.45 percentage of rate 3 | 99.58 percentage of rate 3 | 100 percentage of rate 3 | 56.77 percentage of rate 3 | 35.13 percentage of rate 3 | 32.57 percentage of rate 3 | 32.46 percentage of rate 3 | 34.54 percentage of rate 3 | 36.55 percentage of rate 3 | 36.68 percentage of rate 3 | 35.75 percentage of rate 3 | 32.86 percentage of rate 3 | 29.78 percentage of rate 3 | 28.15 percentage of rate 3 | 28.07 percentage of rate 3 | 30.73 percentage of rate 3 | 31.49 percentage of rate 3 | 31.18 percentage of rate 3 | 101.04 | 101.44 | effect on reduction in OCR caused by hydrogen peroxide [2, 21]: appears to lessen the reduction in OCR caused by the hydrogen peroxide about the same or slightly less than the niacinamide; Average OCR value per treatment group [2, 5]: 100; Average OCR value per treatment group [2, 6]: −21.48; Average OCR value per treatment group [2, 7]: 64.55; Average OCR value per treatment group [2, 8]: 68.43; Average OCR value per treatment group [2, 9]: 59.47; Average OCR value per treatment group [2, 10]: 53.35; Average OCR value per treatment group [2, 11]: 49.83; Average OCR value per treatment group [2, 12]: 48.18; Average OCR value per treatment group [2, 13]: 48.82; Average OCR value per treatment group [2, 14]: 49.81; Average OCR value per treatment group [2, 15]: 47.50; Average OCR value per treatment group [2, 16]: 44.97; Average OCR value per treatment group [2, 17]: 41.00; Average OCR value per treatment group [2, 18]: 37.55; Average OCR value per treatment group [2, 19]: 32.67; Average OCR value per treatment group [2, 20]: 28.15
